Legend:
TchiGR43a [1] = target: T1, TchiGR43a (Trichogramma chilonis, UniProt A0A481RL18); assay: two-electrode voltage-clamp of Xenopus oocytes expressing TchiGR43a, dose-response; assay type: cell-based
T1 construct: full-length open reading frame (549 amino acid residues), expressed in Xenopus laevis oocytes
T1 sequence (A0A481RL18 1-549): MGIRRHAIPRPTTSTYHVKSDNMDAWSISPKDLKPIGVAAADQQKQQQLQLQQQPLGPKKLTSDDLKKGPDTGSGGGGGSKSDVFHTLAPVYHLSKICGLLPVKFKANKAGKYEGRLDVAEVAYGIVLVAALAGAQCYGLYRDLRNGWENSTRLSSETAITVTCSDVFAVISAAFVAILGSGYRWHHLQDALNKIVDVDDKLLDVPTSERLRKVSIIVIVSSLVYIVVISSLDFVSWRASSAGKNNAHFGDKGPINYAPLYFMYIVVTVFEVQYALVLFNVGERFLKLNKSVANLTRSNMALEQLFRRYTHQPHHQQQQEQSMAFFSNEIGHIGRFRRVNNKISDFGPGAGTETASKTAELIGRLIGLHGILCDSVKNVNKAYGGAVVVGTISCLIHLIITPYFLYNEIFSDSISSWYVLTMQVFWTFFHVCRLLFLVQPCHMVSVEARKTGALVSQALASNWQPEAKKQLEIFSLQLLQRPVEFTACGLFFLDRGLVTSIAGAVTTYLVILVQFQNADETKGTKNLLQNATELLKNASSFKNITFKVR

TchiGR43a [2] = target: T1, TchiGR43a; assay: two-electrode voltage-clamp of Xenopus oocytes expressing TchiGR43a, single concentration […] (weaker response than D-fructose); assay type: cell-based

Structure (SMILES) | EC50 (TchiGR43a [1]) | two-electrode voltage-clamp of Xenopus oocytes expressing TchiGR43a, single conc (TchiGR43a [2])
O=C(CO)[C@@H](O)[C@H](O)[C@H](O)CO [D-fructose] | 23 mM | –
O[C@H]1[C@H](O)[C@@H](O)[C@H](O)[C@@H](O)[C@H]1O [myo-inositol] | – | the oocytes expressing TchiGR43a showed responses to D-fructose and myo-inositol

From paper PMC6583964, “Identification and functional characterization of D-fructose receptor in an egg parasitoid, Trichogramma chilonis” (PLoS ONE, 2019)
